Patent US5079257A, “Indoloquinone compounds” (priority 1986, dated 1992)
Values after ≈ are worked out from the molar mass of the structure shown. Like-named read-outs stand apart in the source and are kept apart here.

Experiments:
Ovarian (MRI-H-207) line = type: in vivo, human
From the text: The xenograft experiments have been carried by Dr. H. H. Fiebig of the University of Freiburg [Lung-NSCLC (LXGF) line, Renal line, Breast line; See: H. H. Fiebig et al., Behring Inst. Mitt., 74 343] and by Dr. E. Boven of the Free University Hospital Amsterdam [Ovarian (MRI-H-207) line; See: E. Boven et al., Cancer Res., 45, 86 (1985) and E. Boven et al., Eur. J. Clin. Oncol., 21, 1253 (1985)].
Mice: C57B1 athymic (nu/nu) female mice, 8 to 10 weeks of age were used for s.c. bilateral implantation of tumour fragments 2 mm diameter.
Treatment: E.O. 9 was dissolved in saline at a concentration of 0.5 mg/ml prior to administration. Drug doses and schedules were derived from studies in experimental murine tumour systems and from orientation studies in non-tumour-bearing nude mice. Treatment was started i.v. when tumours measured 50-150 mm^3. After randomization a group of 6-7 tumour-bearing mice was treated and a group of 5-6 tumour-bearing mice served as control.
Evaluation of efficacy: Tumours were measured twice weekly in three dimensions. Efficacy was expressed as the mean of relative tumour volume in treated animals vs. that in control animals×100 (% T/C). The optimal value was calculated within 35 days after the last injection. Toxic death (dead mice within two weeks after the last injection) were excluded from the evaluation.
MRI-H-207: An undifferentiated adenocarcinoma kindly provided by Dr. A. E. Bogden, Worcester, Mass, with a doubling time of 3-5 days.

L1210 cells = test: L1210 activity (bioliquid assay), cytotoxicity; type: cell-based; details: for IC50: Mus musculus
From the text: The indoloquinones II (formula II) have been tested in respect of their cytotoxic activity against L1210 cells and R-1 cells (Rhabdomyosarcoma Cells) in a bioliquid assay at the department of oncology of the Free University of Amsterdam (Table I). In addition to this seven compounds (E.O. 1, E.O. 2, E.O. 4, E.O. 7, E.O. 9, E.O. 16 and E.O. 17) have been tested on L1210 activity in a clonogenic assay at TNO, Rijswijk. Further, the lowest active doses of the compounds E.O. 1, E.O. 2, E.O. 4 and E.O. 9 have been determined at TNO Rijswijk, according to the method described by Lamberts et al. [Oncology, 40, 301 (1983)]. (Table II). Eight indoloquinones (E.O. 1, E.O. 2, E.O. 4, E.O. 4A, E.O. 8, E.O. 9, E.O. 33 and E.O. 35) have been tested in a panel of five human tumour lines (TNO Rijswijk; Table III). From the latter group three indoloquinones (E.O. 1, E.O. 4 and E.O. 9) have been selected for a cytotoxicity study, involving five slowly growing human tumour lines (University of Freiburg; Table IV).
For this purpose, L1210 cells were grown, as suspension, in Falcon multi-wells (growth area: 9.6 cm^2) using RPMI supplemented with 15% FCS and 2-mercapto-ethanol (60 μmol) as medium. In this medium, the cells were continuously incubated with the compound to be tested at 37° C. in an atmosphere of 5% CO2 in humidified air for 48 hours. Thereupon they were counted on a Sysmex microcell counter (CC110).
(§1) The in vitro L1210 and R-1 activities of the indoloquinones (formula III), were also determined in the bioliquid assays as described above.

[1] = Half-wave reduction potentials / polarography (University of Utrecht); type: physicochemical; details: for E1/2, halve wave reduction potential: Table IA, only the first (quinone) reduction potential
From the text: *The halve wave reduction potentials (E1/2) have been determined at the
Pharmaceutical Laboratory of University of Utrecht. Only the first
(quinone) reduction potential has been given.
Additional evidence for the occurrence of a bioreductive activation mechanism during the cytotoxic action of indoloquinones (II) was obtained via electrochemical studies, which have been carried out at the Pharmaceutical Laboratory of the University of Utrecht. […]

[2] = tested on: R-1 cells (Rhabdomyosarcoma Cells); test: R-1 activity (bioliquid assay), cytotoxicity; type: cell-based; details: Rhabdomyosarcoma cell
From the text: The indoloquinones II (formula II) have been tested in respect of their cytotoxic activity against L1210 cells and R-1 cells (Rhabdomyosarcoma Cells) in a bioliquid assay at the department of oncology of the Free University of Amsterdam (Table I). […] (Table II). Eight indoloquinones (E.O. 1, E.O. 2, E.O. 4, E.O. 4A, E.O. 8, E.O. 9, E.O. 33 and E.O. 35) have been tested in a panel of five human tumour lines (TNO Rijswijk; Table III).
For the determination of the R-1 activity, Rhabdomyosarcoma cells were brought into Falcon multiwells (growth area: 9.6 cm^2) (~10^6 cells per dish) containing 3 ml of Dulbecco's medium supplemented with 10% Foeto Calf Serum (FCS). […] Thereupon the drug solution was removed and the cells were covered with fresh medium. After 48 hours the cells were trypsinized and counted on a Sysmex microcell counter (CC110).
as §1

[3] = tested on: A 204 cells; rhabdomyosarcoma; test: In vitro panel of human tumour lines (TNO): A 204; type: cell-based; details: about 72 hours; further: key: -: no inhibition of cell growth; +: total cell-kill
Description: (§2) Compounds E.O. 1, E.O. 2, E.O. 4, E.O. 4A, E.O. 8, E.O. 9, […], E.O. 33, and E.O. 35 were tested for their activity against five human tumour cell lines at the Radiobiological Institute TNO Rijswijk.
(§3) The new in vitro prescreen uses human tumour clones; it was set up by Dr. P. Lelieveld at TNO Rijswijk and comprises testing compounds in a bioliquid assay for their cytostatic activity against the following five human tumour lines:
(§4) After a continuous exposure to the drugs to be tested and to Adriamycin in `24 well tissue culture clusters, type 3524 (Costar)`, the remaining cells are fixed and stained. Using increasing drug concentrations the inhibiting concentration can be estimated qualitatively.
(§5) Cells: the human tumour cells are maintained in Dulbecco's medium supplemented with 10 percent foetal calf serum.
(§6) A, T and Z cell suspensions: 5·10^4 cells/ml
(§7) The cells were grafted into 16 mm wells for 48 hours (0.5 ml cell suspension per well was used).
(§8) Drugs: the compound to be tested was dissolved in appropriate concentrations in a mixture of Hepes-buffered Hanks' balanced salt solution and ethanol. The drug solutions (0.05 ml) were added to the different wells. The final ethanol concentration in each well was less than one percent.
(§9) The cells were continuously incubated with the compound under test at 37° in an atmosphere of 10 percent CO2 in humidified air for about 72 hours.
(§10) Determination of the inhibiting dose: the cells were fixed and stained with a solution of crystal violet in methanol/formaldehyde.

[4] = tested on: T 24 cells; bladder carcinoma; test: In vitro panel of human tumour lines (TNO): T 24; type: cell-based; details: about 72 hours; further: key: -: no inhibition of cell growth; +: total cell-kill
Description: as §2, §3, §4, §5, §6, §7, §8, §9, §10

WiDr cells; colon tumour = test: In vitro panel of human tumour lines (TNO): WiDr; type: cell-based; details: about 72 hours; further: key: -: no inhibition of cell growth; +: total cell-kill
Description: as §2, §3, §4, §5
(§11) M and W cell suspensions: 10^5 cells/ml.
as §7, §8, §9, §10

MCF7 breast cancer cells = test: In vitro panel of human tumour lines (TNO): MCF-7; type: cell-based; details: about 72 hours; further: key: -: no inhibition of cell growth; +: total cell-kill
Description: as §2, §3, §4, §5, §11, §7, §8, §9, §10

IgR37 cells melanoma = test: In vitro panel of human tumour lines (TNO): IgR-37; type: cell-based; details: about 72 hours; further: key: -: no inhibition of cell growth; +: total cell-kill
Description: as §2, §3, §4, §5, §6, §7, §8, §9, §10

[5] = L1210, 48 h, Table IA, para-indoloquinone diesters, read-out: ID-50 L1210
[6] = Table IA, para-indoloquinone diesters, read-out: ID-50 R-1
[7] = L1210, 48 h, read-out: ID-50 L1210, Table IA, para-indoloquinone diesters
[8] = read-out: ID-50 R-1, Table IA, para-indoloquinone diesters

In the case of `COc1cccc2c1C(=O)c1c(O)c3c(c(O)c1C2=O)C[C@@](O)(C(=O)CO)C[C@@H]3O[C@H]1C[C@H](N)[C@H](O)[C@H](C)O1` [DXR], the toxic deaths (Ovarian (MRI-H-207) line; 10 mg/kg, days of treatment 0.7) is reported as 1/6.

For `COC(=O)/C=C/c1c(C(=O)OC)c2c(n1C)C(=O)C=C(OC)C2=O` [E.O. 14, Methyl 5-methoxy-3-methoxycarbonyl-1-methyl-2-[1H-indole-4,7-dione]acrylate], the IC50 (L1210 cells; [5]) was 0.8 mg/L (≈ 2.4 µM), the “E1/2, halve wave reduction potential” value [1] was -243 mV and the IC50 [2, 6] was greater than 10 mg/L.

For `O=P1(N(CCCl)CCCl)NCCCO1` (centres unmarked) [CTX], the toxic deaths (Ovarian (MRI-H-207) line) was 2/7.

In the case of `CC(=O)OC/C=C/c1c(COC(C)=O)c2c(n1C)C(=O)C=C(NCC(O)CO)C2=O` (stereo not drawn) [E.O. 6, 3-Acetoxymethyl-5-(2,3-dihydroxypropyl-1-amino)-1-methyl-2-[1H-indole-4,7-dione]prop-β-en-α-yl acetate], the IC50 (L1210 cells; L1210, Table I, bioliquid assay, 48 hours, read-out: ID-50 L1210) is reported as greater than 10 mg/L, the “ID-50 L1210” value (L1210 cells; Table VI, 2880 min) is reported as greater than 10 µg/mL and the “direct current polarogram” value ([1]; DC-polarography) is reported as “two or more reduction waves”. The “half-wave potential E1.2, wave I” value ([1]; pH = 8 vs Ag/AgCl) was -515 mV, the “half-wave potential E1.2, wave III” value ([1]; pH = 8 vs Ag/AgCl) was -600 mV and the “half-wave potential E1.2, wave IV” value ([1]; pH = 8 vs Ag/AgCl) was -985 mV. For the same compound, the IC50 ([2]; Table I, bioliquid assay, read-out: ID-50 R-1) was greater than 10 mg/L and the IC50 ([2]; Table VI, read-out: ID-50 R-1) was greater than 10 mg/L.

With `CC1CN1C1=CC(=O)c2c(c(CO)c(/C=C/CO)n2C)C1=O` (stereo not drawn) [E.O. 8, 3-Hydroxymethyl-1-methyl-5-propyleneamino-2-[1H-indole-4,7-dione]prop-β-en-α-ol] the “in vitro activity score, A 204” value ([3]; 0.01 μg/ml) was “-”, the “in vitro activity score, A 204” value ([3]; 0.1 μg/ml) was “-” and the “in vitro activity score, A 204” value ([3]; 1.0 μg/ml) was “-”. The IC50 (L1210 cells; L1210, 48 h, read-out: ID-50 L1210, Table I, bioliquid assay, 48 hours) was 0.5 mg/L (≈ 1.65 µM), the IC50 (L1210 cells; L1210, 48 h, read-out: ID-50 L1210, Table VIII) was 0.48 mg/L (≈ 1.59 µM) and the “in vitro activity score, T 24” value ([4]; 0.01 μg/ml) was “-”. For the same compound, the “in vitro activity score, T 24” value ([4]; 0.1 μg/ml) was “-”, the “in vitro activity score, T 24” value ([4]; 1.0 μg/ml) was “-” and the “half-wave potential E1.2, wave I” value ([1]; pH = 8 vs Ag/AgCl) was -380 mV. The “half-wave potential E1.2, wave II” value ([1]; pH = 8 vs Ag/AgCl) was -780 mV, the “in vitro activity score, WiDr” value (WiDr cells; colon tumour; 0.01 μg/ml) was “-” and the “in vitro activity score, WiDr” value (WiDr cells; colon tumour; 0.1 μg/ml) was “-”. For the same compound, the “in vitro activity score, WiDr” value (WiDr cells; colon tumour; 1.0 μg/ml) was “-”, the “in vitro activity score, MCF-7” value (MCF7 breast cancer cells; 0.01 μg/ml) was “-” and the “in vitro activity score, MCF-7” value (MCF7 breast cancer cells; 0.1 μg/ml) was “-”. The “in vitro activity score, MCF-7” value (MCF7 breast cancer cells; 1.0 μg/ml) was “-”, the “in vitro activity score, MCF-7” value (MCF7 breast cancer cells; 10 μg/ml) was “-” and the IC50 ([2]; read-out: ID-50 R-1, Table VIII) was 7.6 mg/L (≈ 25.1 µM). For the same compound, the “in vitro activity score, IgR-37” value (IgR37 cells melanoma; 0.01 μg/ml) was “-”, the “in vitro activity score, IgR-37” value (IgR37 cells melanoma; 0.1 μg/ml) was “-” and the “in vitro activity score, IgR-37” value (IgR37 cells melanoma; 1.0 μg/ml) was “-”. The “in vitro activity score, IgR-37” value (IgR37 cells melanoma; 10 μg/ml) was “+”.

In the case of `COC(=O)/C=C/c1c(C(=O)OC)c2c(n1C)C(=O)C=C(NCC(O)CO)C2=O` (centres unmarked) [E.O. 23, Methyl 5-(2,3-dihydroxypropyl-1-amino)-3-methoxycarbonyl-1-methyl-2-[1H-indole-4,7-dione]acrylate], the IC50 (L1210 cells; [5]) is reported as greater than 10 mg/L, the “E1/2, halve wave reduction potential” value [1] is reported as -343 mV and the IC50 [2, 6] is reported as greater than 10 mg/L.

In the case of `COC(=O)/C=C/c1c(C(=O)OC)c2c(n1C)C(=O)C=C(N1CC1C)C2=O` (centres unmarked) [E.O. 28, Methyl 3-methoxycarbonyl-1-methyl-5-propyleneamino-2-[1H-indole-4,7-dione]acrylate], the IC50 (L1210 cells; [7]) is reported as 2.2 mg/L (≈ 6.14 µM), the “E1/2, halve wave reduction potential” value [1] is reported as -171 mV and the IC50 [2, 8] is reported as 5.7 mg/L (≈ 15.9 µM).

In the case of `COC(=O)/C=C/c1c(C(=O)OC)c2c(n1C)C(=O)C(C)=C(N1CC1)C2=O` [E.O. 34, Methyl 5-aziridino-1,6-dimethyl-3-methoxycarbonyl-2-[1H-indole-4,7-dione]acrylate], the IC50 (L1210 cells; [7]) is reported as 2.7 mg/L (≈ 7.53 µM), the “E1/2, halve wave reduction potential” value [1] is reported as -239 mV and the IC50 [2, 8] is reported as 2.8 mg/L (≈ 7.81 µM).
